Assay results reported in ChEMBL document CHEMBL4393657, “Tetrazole hybrids and their antifungal activities” (2019).
Values after ≈ are worked out from the molar mass of the structure shown.

Experiments:
Assay type in all cases: functional
[1] = tested on: Cryptococcus neoformans; assay: Antifungal activity against Cryptococcus neoformans LA314 assessed as reduction in fungal cell growth incubated for 48 hrs by broth microdilution method; conditions: LA314, 48 h
[2] = tested on: Nakaseomyces glabratus; assay: Antifungal activity against Candida glabrata assessed as reduction in fungal cell growth incubated for 48 hrs by broth microdilution method
[3] = tested on: Candida parapsilosis; assay: Antifungal activity against Candida parapsilosis ATCC 22019 assessed as reduction in fungal cell growth incubated for 48 hrs by broth microdilution method; conditions: Lodderomyces parapsilosis, ATCC 22019, 48 h
[4] = tested on: Pichia kudriavzevii; assay: Antifungal activity against Candida krusei assessed as reduction in fungal cell growth incubated for 48 hrs by broth microdilution method
[5] = tested on: Candida albicans; assay: Antifungal activity against Candida albicans assessed as reduction in fungal cell growth incubated for 48 hrs by broth microdilution method
[6] = tested on: Candida tropicalis; assay: Antifungal activity against Candida tropicalis assessed as reduction in fungal cell growth incubated for 48 hrs by broth microdilution method
[7] = tested on: Aspergillus niger; assay: Antifungal activity against Aspergillus niger assessed as reduction in fungal cell growth incubated for 72 hrs by broth microdilution method

CC(n1nnnc1CCN1CCN(c2cccc(Cl)c2)CC1)C(O)(Cn1cncn1)c1ccc(F)cc1F (stereo unspecified)
MIC [1]: 0.5 to 16 µg/mL (≈ 0.919 to 29.4 µM)
MIC [2]: 0.5 to 16 µg/mL (≈ 0.919 to 29.4 µM)
MIC [3]: 0.5 to 16 µg/mL (≈ 0.919 to 29.4 µM)
MIC [4]: 0.5 to 16 µg/mL (≈ 0.919 to 29.4 µM)
MIC [5]: 0.5 to 16 µg/mL (≈ 0.919 to 29.4 µM)
MIC [6]: 0.5 to 16 µg/mL (≈ 0.919 to 29.4 µM)
MIC [7]: 0.5 to 16 µg/mL (≈ 0.919 to 29.4 µM)

CCCCOc1ccccc1N1CCN(CCc2nnnn2[C@@H](C)[C@](O)(Cn2cncn2)c2ccc(F)cc2F)CC1
MIC [1]: 0.12 to 16 µg/mL (≈ 0.206 to 27.5 µM)
MIC [2]: 0.12 to 16 µg/mL (≈ 0.206 to 27.5 µM)
MIC [3]: 0.12 to 16 µg/mL (≈ 0.206 to 27.5 µM)
MIC [4]: 0.12 to 16 µg/mL (≈ 0.206 to 27.5 µM)
MIC [5]: 0.12 to 16 µg/mL (≈ 0.206 to 27.5 µM)
MIC [6]: 0.12 to 16 µg/mL (≈ 0.206 to 27.5 µM)
MIC [7]: 0.12 to 16 µg/mL (≈ 0.206 to 27.5 µM)

CC(n1nnc(CCN2CCN(c3c(Cl)cccc3Cl)CC2)n1)C(O)(Cn1cncn1)c1ccc(F)cc1F (stereo unspecified)
MIC [1]: 1 to 16 µg/mL (≈ 1.73 to 27.7 µM)
MIC [2]: 1 to 16 µg/mL (≈ 1.73 to 27.7 µM)
MIC [3]: 1 to 16 µg/mL (≈ 1.73 to 27.7 µM)
MIC [4]: 1 to 16 µg/mL (≈ 1.73 to 27.7 µM)
MIC [5]: 1 to 16 µg/mL (≈ 1.73 to 27.7 µM)
MIC [6]: 1 to 16 µg/mL (≈ 1.73 to 27.7 µM)
MIC [7]: 1 to 16 µg/mL (≈ 1.73 to 27.7 µM)

OC(Cn1cncn1)(Cn1nnc(CCN2CCN(c3ccc(F)cc3)CC2)n1)c1ccc(F)cc1F (stereo unspecified)
MIC [1]: 1 to 16 µg/mL (≈ 1.95 to 31.2 µM)
MIC [2]: 1 to 16 µg/mL (≈ 1.95 to 31.2 µM)
MIC [3]: 1 to 16 µg/mL (≈ 1.95 to 31.2 µM)
MIC [4]: 1 to 16 µg/mL (≈ 1.95 to 31.2 µM)
MIC [5]: 1 to 16 µg/mL (≈ 1.95 to 31.2 µM)
MIC [6]: 1 to 16 µg/mL (≈ 1.95 to 31.2 µM)
MIC [7]: 1 to 16 µg/mL (≈ 1.95 to 31.2 µM)

OC(Cn1cncn1)(Cn1nnnc1CCN1CCN(c2ccc(F)cc2)CC1)c1ccc(F)cc1F (stereo unspecified)
MIC [1]: 0.5 to 16 µg/mL (≈ 0.974 to 31.2 µM)
MIC [2]: 0.5 to 16 µg/mL (≈ 0.974 to 31.2 µM)
MIC [3]: 0.5 to 16 µg/mL (≈ 0.974 to 31.2 µM)
MIC [4]: 0.5 to 16 µg/mL (≈ 0.974 to 31.2 µM)
MIC [5]: 0.5 to 16 µg/mL (≈ 0.974 to 31.2 µM)
MIC [6]: 0.5 to 16 µg/mL (≈ 0.974 to 31.2 µM)
MIC [7]: 0.5 to 16 µg/mL (≈ 0.974 to 31.2 µM)

COc1ccc(N2CCN(CCc3nnnn3C(C)C(O)(Cn3cncn3)c3ccc(F)cc3F)CC2)cc1 (stereo unspecified)
MIC [1]: 0.5 to 16 µg/mL (≈ 0.927 to 29.7 µM)
MIC [2]: 0.5 to 16 µg/mL (≈ 0.927 to 29.7 µM)
MIC [3]: 0.5 to 16 µg/mL (≈ 0.927 to 29.7 µM)
MIC [4]: 0.5 to 16 µg/mL (≈ 0.927 to 29.7 µM)
MIC [5]: 0.5 to 16 µg/mL (≈ 0.927 to 29.7 µM)
MIC [6]: 0.5 to 16 µg/mL (≈ 0.927 to 29.7 µM)
MIC [7]: 0.5 to 16 µg/mL (≈ 0.927 to 29.7 µM)

OC(Cn1cncn1)(Cn1nnc(CCN2CCN(c3cccc(C(F)(F)F)c3)CC2)n1)c1ccc(F)cc1F (stereo unspecified)
MIC [1]: 1 to 16 µg/mL (≈ 1.77 to 28.4 µM)
MIC [2]: 1 to 16 µg/mL (≈ 1.77 to 28.4 µM)
MIC [3]: 1 to 16 µg/mL (≈ 1.77 to 28.4 µM)
MIC [4]: 1 to 16 µg/mL (≈ 1.77 to 28.4 µM)
MIC [5]: 1 to 16 µg/mL (≈ 1.77 to 28.4 µM)
MIC [6]: 1 to 16 µg/mL (≈ 1.77 to 28.4 µM)
MIC [7]: 1 to 16 µg/mL (≈ 1.77 to 28.4 µM)

CC(n1nnc(CCN2CCN(Cc3ccccc3)CC2)n1)C(O)(Cn1cncn1)c1ccc(F)cc1F (stereo unspecified)
MIC [1]: 1 to 16 µg/mL (≈ 1.91 to 30.6 µM)
MIC [2]: 1 to 16 µg/mL (≈ 1.91 to 30.6 µM)
MIC [3]: 1 to 16 µg/mL (≈ 1.91 to 30.6 µM)
MIC [4]: 1 to 16 µg/mL (≈ 1.91 to 30.6 µM)
MIC [5]: 1 to 16 µg/mL (≈ 1.91 to 30.6 µM)
MIC [6]: 1 to 16 µg/mL (≈ 1.91 to 30.6 µM)
MIC [7]: 1 to 16 µg/mL (≈ 1.91 to 30.6 µM)

C[C@H](n1nnc(CCN2CCN(c3cccc(C(F)(F)F)c3)CC2)n1)[C@](O)(Cn1cncn1)c1ccc(F)cc1F
MIC [1]: 0.25 to 16 µg/mL (≈ 0.433 to 27.7 µM)
MIC [2]: 0.25 to 16 µg/mL (≈ 0.433 to 27.7 µM)
MIC [3]: 0.25 to 16 µg/mL (≈ 0.433 to 27.7 µM)
MIC [4]: 0.25 to 16 µg/mL (≈ 0.433 to 27.7 µM)
MIC [5]: 0.25 to 16 µg/mL (≈ 0.433 to 27.7 µM)
MIC [6]: 0.25 to 16 µg/mL (≈ 0.433 to 27.7 µM)
MIC [7]: 0.25 to 16 µg/mL (≈ 0.433 to 27.7 µM)

CCCCOc1ccccc1N1CCN(CCc2nnn(C(C)C(O)(Cn3cncn3)c3ccc(F)cc3F)n2)CC1 (stereo unspecified)
MIC [1]: 1 to 16 µg/mL (≈ 1.72 to 27.5 µM)
MIC [2]: 1 to 16 µg/mL (≈ 1.72 to 27.5 µM)
MIC [3]: 1 to 16 µg/mL (≈ 1.72 to 27.5 µM)
MIC [4]: 1 to 16 µg/mL (≈ 1.72 to 27.5 µM)
MIC [5]: 1 to 16 µg/mL (≈ 1.72 to 27.5 µM)
MIC [6]: 1 to 16 µg/mL (≈ 1.72 to 27.5 µM)
MIC [7]: 1 to 16 µg/mL (≈ 1.72 to 27.5 µM)

COc1ccccc1N1CCN(CCc2nnn(C(C)C(O)(Cn3cncn3)c3ccc(F)cc3F)n2)CC1 (stereo unspecified)
MIC [1]: 1 to 16 µg/mL (≈ 1.85 to 29.7 µM)
MIC [2]: 1 to 16 µg/mL (≈ 1.85 to 29.7 µM)
MIC [3]: 1 to 16 µg/mL (≈ 1.85 to 29.7 µM)
MIC [4]: 1 to 16 µg/mL (≈ 1.85 to 29.7 µM)
MIC [5]: 1 to 16 µg/mL (≈ 1.85 to 29.7 µM)
MIC [6]: 1 to 16 µg/mL (≈ 1.85 to 29.7 µM)
MIC [7]: 1 to 16 µg/mL (≈ 1.85 to 29.7 µM)

CC(n1nnnc1CCN1CCN(c2ccc(F)cc2)CC1)C(O)(Cn1cncn1)c1ccc(F)cc1F (stereo unspecified)
MIC [1]: 0.5 to 16 µg/mL (≈ 0.948 to 30.3 µM)
MIC [2]: 0.5 to 16 µg/mL (≈ 0.948 to 30.3 µM)
MIC [3]: 0.5 to 16 µg/mL (≈ 0.948 to 30.3 µM)
MIC [4]: 0.5 to 16 µg/mL (≈ 0.948 to 30.3 µM)
MIC [5]: 0.5 to 16 µg/mL (≈ 0.948 to 30.3 µM)
MIC [6]: 0.5 to 16 µg/mL (≈ 0.948 to 30.3 µM)
MIC [7]: 0.5 to 16 µg/mL (≈ 0.948 to 30.3 µM)

CCCCOc1ccccc1N1CCN(CCc2nnn(CC(O)(Cn3cncn3)c3ccc(F)cc3F)n2)CC1 (stereo unspecified)
MIC [1]: 1 to 16 µg/mL (≈ 1.76 to 28.2 µM)
MIC [2]: 1 to 16 µg/mL (≈ 1.76 to 28.2 µM)
MIC [3]: 1 to 16 µg/mL (≈ 1.76 to 28.2 µM)
MIC [4]: 1 to 16 µg/mL (≈ 1.76 to 28.2 µM)
MIC [5]: 1 to 16 µg/mL (≈ 1.76 to 28.2 µM)
MIC [6]: 1 to 16 µg/mL (≈ 1.76 to 28.2 µM)
MIC [7]: 1 to 16 µg/mL (≈ 1.76 to 28.2 µM)

CC(n1nnc(CCN2CCN(c3ccc([N+](=O)[O-])cc3)CC2)n1)C(O)(Cn1cncn1)c1ccc(F)cc1F (stereo unspecified)
MIC [1]: 1 to 16 µg/mL (≈ 1.8 to 28.9 µM)
MIC [2]: 1 to 16 µg/mL (≈ 1.8 to 28.9 µM)
MIC [3]: 1 to 16 µg/mL (≈ 1.8 to 28.9 µM)
MIC [4]: 1 to 16 µg/mL (≈ 1.8 to 28.9 µM)
MIC [5]: 1 to 16 µg/mL (≈ 1.8 to 28.9 µM)
MIC [6]: 1 to 16 µg/mL (≈ 1.8 to 28.9 µM)
MIC [7]: 1 to 16 µg/mL (≈ 1.8 to 28.9 µM)

OC(Cn1cncn1)(Cn1nnnc1CCN1CCN(c2c(Cl)cccc2Cl)CC1)c1ccc(F)cc1F (stereo unspecified)
MIC [1]: 0.5 to 16 µg/mL (≈ 0.886 to 28.3 µM)
MIC [2]: 0.5 to 16 µg/mL (≈ 0.886 to 28.3 µM)
MIC [3]: 0.5 to 16 µg/mL (≈ 0.886 to 28.3 µM)
MIC [4]: 0.5 to 16 µg/mL (≈ 0.886 to 28.3 µM)
MIC [5]: 0.5 to 16 µg/mL (≈ 0.886 to 28.3 µM)
MIC [6]: 0.5 to 16 µg/mL (≈ 0.886 to 28.3 µM)
MIC [7]: 0.5 to 16 µg/mL (≈ 0.886 to 28.3 µM)

CC(n1nnc(CCN2CCN(c3ccc(F)cc3)CC2)n1)C(O)(Cn1cncn1)c1ccc(F)cc1F (stereo unspecified)
MIC [1]: 1 to 16 µg/mL (≈ 1.9 to 30.3 µM)
MIC [2]: 1 to 16 µg/mL (≈ 1.9 to 30.3 µM)
MIC [3]: 1 to 16 µg/mL (≈ 1.9 to 30.3 µM)
MIC [4]: 1 to 16 µg/mL (≈ 1.9 to 30.3 µM)
MIC [5]: 1 to 16 µg/mL (≈ 1.9 to 30.3 µM)
MIC [6]: 1 to 16 µg/mL (≈ 1.9 to 30.3 µM)
MIC [7]: 1 to 16 µg/mL (≈ 1.9 to 30.3 µM)

OC(Cn1cncn1)(Cn1nnnc1CCN1CCN(c2cccc(Cl)c2)CC1)c1ccc(F)cc1F (stereo unspecified)
MIC [1]: 0.5 to 16 µg/mL (≈ 0.943 to 30.2 µM)
MIC [2]: 0.5 to 16 µg/mL (≈ 0.943 to 30.2 µM)
MIC [3]: 0.5 to 16 µg/mL (≈ 0.943 to 30.2 µM)
MIC [4]: 0.5 to 16 µg/mL (≈ 0.943 to 30.2 µM)
MIC [5]: 0.5 to 16 µg/mL (≈ 0.943 to 30.2 µM)
MIC [6]: 0.5 to 16 µg/mL (≈ 0.943 to 30.2 µM)
MIC [7]: 0.5 to 16 µg/mL (≈ 0.943 to 30.2 µM)

CC(n1nnc(CCN2CCN(c3cccc(C(F)(F)F)c3)CC2)n1)C(O)(Cn1cncn1)c1ccc(F)cc1F (stereo unspecified)
MIC [1]: 1 to 16 µg/mL (≈ 1.73 to 27.7 µM)
MIC [2]: 1 to 16 µg/mL (≈ 1.73 to 27.7 µM)
MIC [3]: 1 to 16 µg/mL (≈ 1.73 to 27.7 µM)
MIC [4]: 1 to 16 µg/mL (≈ 1.73 to 27.7 µM)
MIC [5]: 1 to 16 µg/mL (≈ 1.73 to 27.7 µM)
MIC [6]: 1 to 16 µg/mL (≈ 1.73 to 27.7 µM)
MIC [7]: 1 to 16 µg/mL (≈ 1.73 to 27.7 µM)
